Reference: article PMC10314207, “The Dynamic Intestinal Absorption Model (Diamod®), an in vitro tool to study the interconnected kinetics of gastrointestinal solubility, supersaturation, precipitation, and intestinal permeation processes of oral drugs” (International Journal of Pharmaceutics: X, 2023)
Converted amounts (≈) assume the structure as drawn. Where a name gives a salt, the structure may show the parent alone.

How the values were obtained:
[1] = water intake versus no water, cited from earlier work
[2] = high carbohydrate meal; ref Carver et al. (1999); cited from earlier work
[3] = Diamod® fed state: indinavir sulfate with protein meal (Ensure® plus) or carbohydrate meal, high or low bile salts
[4] = Diamod® fasted state: 20 mL Sporanox® solution without or with 240 mL water (stomach, duodenum, permeate); type: in vitro ADME
Description: The stomach vessel accepts gastric secretions (Flow rate F1) and is continuously emptied (Flow rate F2) into the second reactor vessel which simulates the lumen of the duodenum and the blood stream that accepts the permeated fraction. […] The geometry of the inner donor compartment is designed to contain biorelevant duodenal volumes (30 mL), to generate a permeation surface area of 65 cm^2 and to result in a permeation surface area to donor volume ratio of 2 cm^−1.

[5] = ref Bevernage et al., 2012; cited from earlier work
[6] = fed, carbohydrate meal, high bile salts

In the case of CC(O)COC[C@H]1O[C@@H]2O[C@H]3[C@H](O)[C@@H](O)[C@@H](O[C@H]4[C@H](O)[C@@H](O)[C@@H](O[C@H]5[C@H](O)[C@@H](O)[C@@H](O[C@H]6[C@H](O)[C@@H](O)[C@@H](O[C@H]7[C@H](O)[C@@H](O)[C@@H](O[C@H]8[C@H](O)[C@@H](O)[C@@H](O[C@H]1[C@H](O)[C@H]2O)O[C@@H]8COCC(C)O)O[C@@H]7COCC(C)O)O[C@@H]6COCC(C)O)O[C@@H]5COCC(C)O)O[C@@H]4COCC(C)O)O[C@@H]3COCC(C)O (stereo partly drawn) [2-HP-β-CD, 2-hydroxypropyl-β-cyclodextrin], the “fold decrease in duodenal AUC0-3h” value ([1]; in vivo duodenal aspirates, ref Berben et al. (2018c)) is listed as 2.3 fold.
In the case of CC(C)(C)NC(=O)[C@@H]1CN(Cc2cccnc2)CCN1C[C@@H](O)C[C@@H](Cc1ccccc1)C(=O)N[C@H]1c2ccccc2C[C@H]1O [indinavir sulfate], the “increase of Tmax” value [2] is given as “approximately 3 h” and the “decrease in average duodenal solute concentration AUC0–240min” value ([3]; fed high protein meal versus fasted) is given as 34.2%.
For CC(C)(C)NC(=O)[C@@H]1CN(Cc2cccnc2)CCN1C[C@@H](O)C[C@@H](Cc1ccccc1)C(=O)N[C@H]1c2ccccc2C[C@H]1O [indinavir], the “Cmax total in the duodenum” value [3, 6] was 504.3 ± 3.1 µM, the “Cmax total in the stomach” value [3, 6] was 1225.5 ± 19.9 µM and the “supersaturation state in the duodenum” value [3, 6] was “supersaturated throughout the transit through the duodenum”. For the same compound, the “supersaturation state in the duodenum” value ([3]; fed, carbohydrate meal, low bile salts) was “supersaturating throughout the transit through the duodenum”, the “Cmax total in the duodenum” value ([3]; fed, high protein meal) was 514.8 ± 16.5 µM and the “Cmax total in the stomach” value ([3]; fed, high protein meal (Ensure® Plus)) was 1386.0 ± 120.11 µM. For the same compound, the duodenal solute concentrations ([3]; fed, high protein meal, after bile salts decreased towards fasted levels) was “around 100 μM” and the “supersaturation state in the duodenum” value ([3]; fed, high protein meal, period of high bile salts) was “not in a state of supersaturation”.
With CCC(C)n1ncn(-c2ccc(N3CCN(c4ccc(OCC5COC(Cn6cncn6)(c6ccc(Cl)cc6Cl)O5)cc4)CC3)cc2)c1=O (stereo not drawn) [itraconazole] the “additional precipitation in the duodenum upon water intake” value ([4]; difference of solute and total AUC reduction) was 24.0%, the “dissolution state during transit through the stomach” value ([4]; independently of water intake) was “completely dissolved” and the “decrease in AUC0-180min of permeated drug” value ([4]; water intake versus no water) was 3.2%. The “decrease in stomach solute AUC0-180min” value ([4]; water intake versus no water) was 47%, the “decrease in stomach total AUC0-180min” value ([4]; water intake versus no water) was 45% and the “decrease of duodenal AUC0-180min of solute concentration” value ([4]; water intake versus no water) was 56.1%. For the same compound, the “fold decrease of stomach AUC0-180min of solute itraconazole” value ([4]; water intake versus no water) was 1.9 fold, the “reduction of duodenal AUC0-180min of total concentration” value ([4]; water intake versus no water) was 32.1% and the “reduction (times) in average dissolved gastric AUC0-3h” value ([1]; in vivo, ref Berben et al., 2017) was 1.8 times. The “solubility in FaSSGF” value [5] was 2.7 µM (≈ 1.91 µg/mL).
